Laboratory results published in ChEMBL document CHEMBL1201862, “PubChem BioAssay data set” (2004).
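Assay format: 96-well plates, 48-hour exposure. GI50: concentration for 50% inhibition of growth.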 The source made the active and inactive calls. Rule as the data show it: active = GI50 up to about 1.1 µM and inactive = higher.

How the values were obtained:
Assay in all cases: NCI tumour cell line growth inhibition, 48 h
[1] = test system: CAKI-1
[2] = test system: SK-MEL-28
[3] = test system: NCI-H23
[4] = test system: COLO 205
[5] = test system: XF498
[6] = test system: SF-539
[7] = test system: SN12C
[8] = test system: RPMI-8226
[9] = test system: DMS-114
[10] = test system: K562
[11] = test system: HL-60
[12] = test system: HOP-92
[13] = test system: HCC 2998
[14] = test system: SF-268
[15] = test system: A498
[16] = test system: OVCAR-4
[17] = test system: NCI-H522
[18] = test system: DLD-1
[19] = test system: UO-31
[20] = test system: Malme-3M
[21] = test system: IGROV-1
[22] = test system: HCT-116
[23] = test system: SK-OV-3
[24] = test system: MOLT-4
[25] = test system: 786-0
[26] = test system: RXF 631
[27] = test system: NCI-H226
[28] = test system: UACC-62
[29] = test system: M14
[30] = test system: ACHN
[31] = test system: M19-MEL
[32] = test system: HOP-62
[33] = test system: SR
[34] = test system: LXFL 529
[35] = test system: CCRF-CEM
[36] = test system: SNB-75
[37] = test system: DMS-273
[38] = test system: SK-MEL-2
[39] = test system: KM12
[40] = test system: SNB-78
[41] = test system: LOX IMVI
[42] = test system: SNB-19
[43] = test system: HT-29
[44] = test system: A549
[45] = test system: KM-20L2
[46] = test system: EKVX
[47] = test system: TK-10
[48] = test system: HOP-18
[49] = test system: OVCAR-3
[50] = test system: OVCAR-5
[51] = test system: NCI-H460
[52] = test system: SW-620
[53] = test system: UACC-257
[54] = test system: U-251
[55] = test system: HCT-15
[56] = test system: SF-295
[57] = test system: OVCAR-8
[58] = test system: RXF 393
[59] = test system: SK-MEL-5

Measured: GI50

CNC1CC(n2cc(C)c(=O)[nH]c2=O)OC1CO (stereo unspecified)
inactive: [1] > 100 µM | [2] > 100 µM | [3] > 100 µM | [4] > 100 µM | [5] > 100 µM | [6] > 100 µM | [7] > 100 µM | [8] > 100 µM | [9] > 100 µM | [10] > 100 µM | [11] > 100 µM | [12] > 100 µM | [13] > 100 µM | [14] > 100 µM | [15] > 100 µM | [16] > 100 µM | [17] > 100 µM | [18] > 100 µM | [19] > 100 µM | [20] > 100 µM | [21] > 100 µM | [22] > 100 µM | [23] > 100 µM | [24] > 100 µM | [25] > 100 µM | [26] > 100 µM | [27] > 100 µM | [28] > 100 µM | [29] > 100 µM | [30] > 100 µM | [31] > 100 µM | [32] > 100 µM | [33] > 100 µM | [34] > 100 µM | [35] > 100 µM | [36] > 100 µM | [37] > 100 µM | [38] > 100 µM

COC(=O)C#CC(N)=O
> 100 µM: [55]
inactive: [39] > 100 µM | [1] 28.1 µM | [2] 17.9 µM | [40] > 100 µM | [3] > 100 µM | [41] > 35.8 µM | [4] > 100 µM | [6] > 100 µM | [42] > 100 µM | [7] > 100 µM | [43] > 100 µM | [9] > 100 µM | [10] 21.8 µM | [11] 4.94 µM | [44] > 100 µM | [12] 20.6 µM | [13] > 100 µM | [14] > 100 µM | [15] > 100 µM | [16] > 100 µM | [17] > 63.1 µM | [45] > 31.6 µM | [46] > 100 µM | [18] > 100 µM | [19] > 100 µM | [20] 13.4 µM | [21] > 100 µM | [47] > 55.6 µM | [48] 53.5 µM | [49] > 100 µM | [50] > 100 µM | [22] 98.2 µM | [23] > 100 µM | [24] 22.3 µM | [51] > 100 µM | [25] > 59.3 µM | [52] 23.8 µM | [53] 27.7 µM | [26] > 100 µM | [27] > 100 µM | [28] > 64.7 µM | [29] 19.5 µM | [30] > 100 µM | [31] > 64.3 µM | [54] > 100 µM | [32] > 100 µM | [33] 24.2 µM | [56] > 100 µM | [57] 30.7 µM | [34] > 100 µM | [35] 13.9 µM | [36] 35.1 µM | [37] > 100 µM | [58] 31.4 µM | [38] > 91.2 µM | [59] > 100 µM

COc1ccc2oc(-c3cccnc3)cc(=O)c2c1
inactive: [39] > 100 µM | [1] 42.7 µM | [2] > 100 µM | [3] > 100 µM | [41] 47.5 µM | [4] > 100 µM | [5] 95.1 µM | [42] 97.1 µM | [7] 71.4 µM | [8] 53 µM | [43] 59.4 µM | [9] 80.7 µM | [10] 67.8 µM | [11] 52.5 µM | [12] 46.1 µM | [13] > 100 µM | [14] 58.3 µM | [15] 61.2 µM | [16] > 100 µM | [18] > 100 µM | [19] 27.2 µM | [20] > 100 µM | [21] 70.8 µM | [49] 91.8 µM | [50] > 10 µM | [22] 80.7 µM | [24] 36.6 µM | [51] 32.4 µM | [25] > 100 µM | [53] > 100 µM | [26] 52.7 µM | [27] > 100 µM | [28] 80.7 µM | [29] > 100 µM | [30] 59.3 µM | [31] > 100 µM | [54] > 100 µM | [32] 84.7 µM | [56] > 100 µM | [34] 71.6 µM | [35] 49.9 µM | [36] 40.8 µM | [37] 52 µM | [58] > 100 µM | [38] > 100 µM

CC1=N/C(=C/c2ccc3c(c2)OCO3)C(=O)O1
inactive: [39] > 100 µM | [1] > 100 µM | [2] > 100 µM | [40] > 100 µM | [3] > 100 µM | [41] > 100 µM | [4] > 100 µM | [5] > 100 µM | [6] > 100 µM | [42] > 100 µM | [7] > 100 µM | [8] > 100 µM | [43] > 100 µM | [9] > 100 µM | [10] > 100 µM | [44] > 100 µM | [12] > 100 µM | [14] > 100 µM | [15] > 100 µM | [16] > 100 µM | [17] > 100 µM | [45] > 100 µM | [46] > 100 µM | [19] > 100 µM | [20] > 100 µM | [21] > 100 µM | [47] > 100 µM | [48] > 100 µM | [49] > 100 µM | [50] > 100 µM | [22] > 100 µM | [23] > 100 µM | [24] > 100 µM | [25] > 100 µM | [52] > 100 µM | [53] > 100 µM | [26] > 100 µM | [28] > 100 µM | [29] > 100 µM | [30] > 100 µM | [31] > 100 µM | [54] > 100 µM | [57] > 100 µM | [34] > 100 µM | [35] > 100 µM | [36] > 100 µM | [37] > 100 µM | [58] > 100 µM | [38] > 100 µM | [59] > 100 µM
> 100 µM: [55]
